Results from PubChem BioAssay (NCI).
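1) Cells in 96-well plates. 2) Compound, 48 h, 5 concentrations. 3) Linear interpolation between surrounding doses. 4) Unreached endpoint = highest concentration. The concentration for full growth arrest is given as TGI.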 *1 amine or outer side, *2 acyl side, *3 side chain or, on linkers, in order; H or OH if unused. Where a SMILES comes first, the peptide text is derived from it. The star is where a group is joined. γGlu = O=C(O)[CH](CCC(=O)[*:2])N[*:1]; NHOH = ON*

Assays:
Test in all cases: growth of human tumour cells (NCI), 48 h
HCC-2998 colon = system: HCC-2998 colon
HCT-116 colon = system: HCT-116 colon
K-562 leukemia = system: K-562 leukemia
MOLT-4 leukemia = system: MOLT-4 leukemia
SNB-75 CNS = system: SNB-75 CNS
NCI-H460 lung = system: NCI-H460 lung
DU-145 prostate = system: DU-145 prostate
A498 renal = system: A498 renal
UO-31 renal = system: UO-31 renal
SNB-19 CNS = system: SNB-19 CNS
MALME-3M melanoma = system: MALME-3M melanoma
HT29 colon = system: HT29 colon

SMILES	TGI (HCC-2998 colon) [µM]	TGI (HCT-116 colon) [µM]	TGI (K-562 leukemia) [µM]	TGI (MOLT-4 leukemia) [µM]	TGI (SNB-75 CNS) [µM]	TGI (NCI-H460 lung) [µM]	TGI (DU-145 prostate) [µM]	TGI (A498 renal) [µM]	TGI (UO-31 renal) [µM]	TGI (SNB-19 CNS) [µM]	TGI (MALME-3M melanoma) [µM]	TGI (HT29 colon) [µM]
Fc1ccc(/C=C2\COCC3=C2NC(=S)NC3c2ccc(F)cc2)cc1 (stereo not drawn)	32.7	32.1	44.6	54	57.6	36	77.3	30.6	33.5	47.7	–	–
CCOC(=O)CCCN	> 100	> 100	> 100	> 100	> 100	> 100	> 100	> 100	> 100	> 100	> 100	> 100
CCCCCCc1cc2cc(C(=O)Nc3nc(C45CC6CC(CC(C6)C4)C5)cs3)c(=O)oc2cc1O	32.8	13.2	11	49.5	32.4	50.3	> 100	31.3	67.6	60.1	51.1	> 100
CCCCOc1ccc(/C=C/C2=[N+](CCO)CCO2)cc1	48.3	> 100	66.5	> 100	> 100	> 100	> 100	> 100	> 100	> 100	> 100	31.4
O=C1O/C(=C(\Br)c2ccc([N+](=O)[O-])cc2)c2ccccc21	> 100	> 100	> 100	> 69.1	> 100	> 100	> 100	> 100	> 100	> 100	> 100	> 88.5
CCCCOC(=O)Nc1ccc(S(=O)(=O)Nc2c(Cl)cccc2Cl)cc1	43.4	57.5	47.8	88.4	–	> 100	> 100	63.1	61.5	> 100	62.7	32
COc1cc(O)c2c(=O)c3cccc(C)c3[nH]c2c1	> 10	> 10	> 10	> 10	> 10	> 10	> 10	> 10	–	> 10	> 10	> 10
Fc1ccc(F)c(C=NC23CC4CC(CC(C4)C2)C3)c1	> 10	> 10	> 10	> 10	> 10	> 10	> 10	> 10	> 10	> 10	> 10	> 10
O=S(=O)(O)c1cc(O)c(N=NC2S(=O)(=O)OCCOS2(=O)=O)c2ccccc12	> 100	> 100	> 100	> 100	> 100	> 100	> 100	> 100	> 100	> 100	> 100	> 100
CCN1CC2=C(OC(N)=C(C#N)C2c2ccc(Cl)cc2)/C(=C/c2ccc(Cl)cc2)C1 (stereo not drawn)	> 100	54.9	> 100	> 100	34.2	> 100	> 100	37.5	> 100	51	84.7	> 100
Cc1c2ccccc2c(/C=N/NC(=O)CSCC(=O)N/N=C/c2c3ccccc3c(C)c3ccccc23)c2ccccc12	65.1	> 100	> 100	> 87.8	> 73.3	> 100	> 100	> 93.3	> 100	> 100	97.3	> 100
NC(CCC(=O)NC(CCC(=O)NO)C(=O)NCC(=O)O)C(=O)O (stereo not drawn) (γGlu-Glu(NHOH)-Gly-OH; configuration not given here)	> 100	> 100	> 100	> 100	> 100	> 100	> 100	> 100	> 100	> 100	–	> 100
CCCSc1ccc2[nH]c(N3C(=O)/C(=C/c4ccc(O)c(OC)c4)N=C3c3ccccc3)cc2c1	14.1	> 100	> 100	20.8	> 100	10.1	> 100	93	> 100	> 100	84	88.9
O=[N+]([O-])C1=Cc2c(O)ccc(O)c2C2OC=CC12 (stereo not drawn)	> 57.8	32.1	> 100	> 46.8	49.5	38.2	> 54.6	30.1	29.7	52.2	–	43.8
C[C@]12CCC(=O)C=C1CC[C@@H]1[C@@H]2CC[C@]2(C)C(=O)/C(=C/c3ccc([N+](=O)[O-])cc3)C[C@@H]12	> 100	> 100	> 100	> 100	> 100	> 100	> 100	48.9	> 100	> 100	> 100	> 100
CC1=NN(c2ccccc2)C(=O)/C1=C1\SC(c2ccccc2)(c2ccccc2)c2ccccc21	> 100	> 100	> 100	> 100	> 100	> 100	> 100	> 100	> 100	> 100	> 100	> 100
CN(C(=O)Cc1cc(Cl)c(Cl)cc1NC(=O)CCCN)[C@H]1CCCC[C@@H]1N1CCCC1	37.1	> 100	> 100	> 100	–	–	> 100	32.4	> 100	45.4	31.1	47.7
O=C(Nc1ccc(Cl)cc1)c1cc(S(=O)(=O)Nc2nc3ncccc3[nH]2)c(SSc2cc(Cl)c(C(=O)Nc3ccc(Cl)cc3)cc2S(=O)(=O)Nc2nc3ncccc3[nH]2)cc1Cl	> 100	> 100	> 100	> 100	> 100	> 100	> 100	> 100	> 100	> 100	> 100	> 100
